Source: patent US10538521B2, “Pyrimidine derivative having antimalarial activity” (CARNA BIOSCIENCES, INC., priority 2016, dated 2020)

Columns and labels:
[1] = test system: K1 strain, a drug resistant strain of Plasmodium falciparum; test: In vitro antimalarial assay (p-LDH, Malstat), K1 strain; format: cell-based; settings: P. falciparum K1 (drug resistant), 72 h culture, p-LDH readout, read-out: Antimalarial activity (IC50 value), Strain K1
How it was run: (§1)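 IC50 derived from concentration-response of parasite lactate dehydrogenase signal (Malstat reagent, NBT/PES formazan at 655 nm) after freeze-thaw lysis. Infected erythrocytes (hematocrit 2%, parasitaemia 0.5 or 1%) exposed 72 h to 12.5–0.0001 μM final compound under 3% O2-4% CO2-93% N2, FCR3 and K1 alike.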

[2] = test system: FCR3 strain, a drug sensitive strain of Plasmodium falciparum; test: In vitro antimalarial assay (p-LDH, Malstat), FCR3 strain; format: cell-based; settings: P. falciparum FCR3 (drug sensitive), 72 h culture, p-LDH readout, read-out: Antimalarial activity (IC50 value), Strain FCR3
How it was run: as §1

Row | SMILES | IC50 [1] [nM] | IC50 [2] [nM]
1 | CCCOCc1cccc(Nc2nc(Nc3ccn4ccnc4c3)cc(N3CCCC3)n2)n1 [Example 164, N4-(imidazo[1,2-a]pyridin-7-yl)-N2-[6-(propoxymethyl)pyridin-2-yl]-6-(pyrrolidin-1-yl) pyrimidine-2,4-diamine] | 1000 to 10000 | 100 to 1000
2 | Cc1ccnc(Nc2nc(Nc3ccn4ccnc4c3)cc(N3CCN(C)CC3)n2)c1 [Example 25, N4-(imidazo[1,2-a]pyridin-7-yl)-6-(4-methylpiperazin-l-yl)-N 2-(4-methylpyridin-2-yl)pyrimidine-2,4-diamine] | 1000 to 10000 | 1000 to 10000
3 | CCCCc1cccc(Nc2nc(Nc3ccn4ccnc4c3)cc(N3C[C@H]4CCC[C@H]4C3)n2)n1 [Example 179, N2-(6-butylpyridin-2-yl)-6-((3aR,6aS)-hexahydrocyclopenta[c]pyrrol-2(1H)-yl)-N4-(imidazo [1,2-a]pyridin-7-yl)pyrimidine-2,4-diamine] | 100 to 1000 | 100 to 1000
4 | CC(C)(C)COc1ccc(Nc2nc(Nc3ccn4ccnc4c3)cc(N3CCOCC3)n2)cn1 [Example 65, N4-(imidazo[1,2-a]pyridin-7-yl)-6-morpholino-N2-(6-(neopentyloxy)pyridin-3-yl)pyrimidine-2,4-diamine] | 100 to 1000 | 100 to 1000
5 | CC(C)c1cccc(Nc2nc(Nc3ccn4ccnc4c3)cc(N3CCCCC3)n2)n1 [Example 121, N4-(imidazo[1,2-a]pyridin-7-yl)-N2-(6-isopropylpyridin-2-yl)-6-(piperidin-1-yl)pyrimidine-2,4-diamine] | 100 to 1000 | < 100
6 | OCc1cccc(Nc2nc(Nc3ccn4ccnc4c3)cc(N3CCCCC3)n2)n1 [Example 192, (6-{[4-(imidazo[1,2-a]pyridin-7-ylamino)-6-(piperidin-1-yl)pyrimidin-2-yl]amino}pyridin-2-yl)methanol] | 1000 to 10000 | 100 to 1000
7 | Cc1cc(C2CC2)cc(Nc2nc(Nc3ccn4ccnc4c3)cc(N3CCCCC3)n2)n1 [Example 141, N2-(4-cyclopropyl-6-methylpyridin-2-yl)-N4-(imidazo[1,2-a]pyridin-7-yl)-6-(piperidin-1-yl)pyrimidine-2,4-diamine] | 100 to 1000 | < 100
8 | CN(C)CCc1cccc(Nc2nc(Nc3ccn4ccnc4c3)cc(N3CCCC3)n2)n1 [Example 172, N2-{6-[2-(dimethylamino)ethyl]pyridin-2-yl}-N4-(imidazo[1,2-a]pyridin-7-yl)-6-(pyrrolidin-1-yl)pyrimidine-2,4-diamine] | 100 to 1000 | < 100
9 | CCc1ccnc(Nc2nc(Nc3ccn4ccnc4c3)cc(N3CCN(C(=O)OC(C)(C)C)[C@H](C)C3)n2)c1 [Example 100, (R)-tert-butyl 4-(2-((4-ethylpyridin-2-yl)amino)-6-(imidazo[1,2-a]pyridin-7-ylamino)pyrimidin-4-yl)-2-methylpiperazine-1-carboxylate] | 100 to 1000 | 100 to 1000
10 | CCCCc1cccc(Nc2nc(Nc3ccn4ccnc4c3)cc(N3CCC4(CCCC4)C3)n2)n1 [Example 173, N2-(6-butylpyridin-2-yl)-N4-(imidazo[1,2-a]pyridin-7-yl)-6-(2-azaspiro[4.4]nonan-2-yl) pyrimidine-2,4-diamine] | 100 to 1000 | 100 to 1000
11 | Cc1cc(C)nc(Nc2nc(Nc3ccn4ccnc4c3)cc(Nn3cccc3)n2)c1 [Example 200, N2-(4,6-dimethylpyridin-2-yl)-N4-(imidazo[1,2-a]pyridin-7-yl)-N6-(1H-pyrrol-1-yl)pyrimidine-2,4,6-triamine] | 100 to 1000 | 100 to 1000
12 | CCc1ccnc(Nc2nc(Nc3ccn4ccnc4c3)cc(N3CCN[C@@H](C)C3)n2)c1 [Example 97, (S)-N2-(4-ethylpyridin-2-yl)-N4-(imidazo[1,2-a]pyridin-7-yl)-6-(3-methylpiperazin-1-yl)pyrimidine-2,4-diamine] | 100 to 1000 | 100 to 1000
13 | CCc1ccnc(Nc2nc(Nc3ccn4ccnc4c3)cc(N3CCN(C(=O)OC(C)(C)C)[C@@H](C)C3)n2)c1 [Example 103, (S)-tert-butyl 4-(2-((4-ethylpyridin-2-yl)amino)-6-(imidazo[1,2-a]pyridin-7-ylamino)pyrimidin-4-yl)-2-methylpiperazine-1-carboxylate] | 100 to 1000 | 100 to 1000
14 | CCOc1cc(Nc2ccn3ccnc3c2)nc(Nc2cccc(C)n2)n1 [Example 29, 6-ethoxy-N4-(imidazo[1,2-a]pyridin-7-yl)-N2-(6-methylpyridin-2-yl)pyrimidine-2,4-diamine] | 100 to 1000 | 100 to 1000
15 | c1cc(Nc2nc(Nc3ccn4ccnc4c3)cc(N3CCCCC3)n2)nc(C2CC2)c1 [Example 96, N2-(6-cyclopropylpyridin-2-yl)-N4-(imidazo[1,2-a]pyridin-7-yl)-6-(piperidin-1-yl)pyrimidine-2,4-diamine] | 100 to 1000 | 100 to 1000
16 | CC(C)COc1cccc(Nc2nc(Nc3ccn4ccnc4c3)cc(N3CCCC3)n2)n1 [Example 158, N4-(imidazo[1,2-a]pyridin-7-yl)-N2-(6-isobutoxypyridin-2-yl)-6-(pyrrolidin-1-yl)pyrimidine-2,4-diamine] | 100 to 1000 | < 100
17 | Cc1ccnc(Nc2nc(Nc3ccn4ccnc4c3)cc(-n3ccnc3)n2)c1 [Example 42, N4-(imidazo[1,2-a]pyridin-7-yl)-6-(1H-imidazol-1-yl)-N2-(4-methylpyridin-2-yl)pyrimidine-2,4-diamine] | 100 to 1000 | 100 to 1000

Further lines, results first:

Row | IC50 [1] [nM] | IC50 [2] [nM] | SMILES
18 | < 100 | < 100 | Cc1cc(C)nc(Nc2nc(Nc3ccn4ccnc4c3)cc(N3CCC(N4CCOCC4)C3)n2)c1 (centres unmarked) [Example 149, N2-(4,6-dimethylpyridin-2-yl)-N4-(imidazo[1,2-a]pyridin-7-yl)-6-(3-morpholinopyrrolidin-1-yl)pyrimidine-2,4-diamine]
19 | 100 to 1000 | < 100 | CCOc1cc(Nc2ccn3ccnc3c2)nc(Nc2cc(C)cc(C)n2)n1 [Example 33, N2-(4,6-dimethylpyridin-2-yl)-6-ethoxy-N4-(imidazo[1,2-a]pyridin-7-yl)pyrimidine-2,4-diamine]
20 | 100 to 1000 | < 100 | Cc1ccc(Nc2nc(Nc3ccn4ccnc4c3)cc(-n3ccnc3)n2)nc1 [Example 43, N4-(imidazo[1,2-a]pyridin-7-yl)-6-(1H-imidazol-1-yl)-N2-(5-methylpyridin-2-yl)pyrimidine-2,4-diamine]
21 | 100 to 1000 | 100 to 1000 | CCCCc1cc(CC)cc(Nc2nc(Nc3ccn4ccnc4c3)cc(N3CCCCC3)n2)n1 [Example 201, N2-(6-butyl-4-ethylpyridin-2-yl)-N4-(imidazo[1,2-a]pyridin-7-yl)-6-(piperidin-1-yl) pyrimidine-2,4-diamine]
22 | 100 to 1000 | < 100 | CCCOc1ccc(Nc2nc(Nc3ccn4ccnc4c3)cc(N3CCOCC3)n2)cn1 [Example 69, N4-(imidazo[1,2-a]pyridin-7-yl)-6-morpholino-N2-(6-propoxy-pyridin-3-yl)pyrimidine-2,4-diamine]
23 | < 100 | < 100 | Cc1cc(C)nc(Nc2nc(Nc3ccn4ccnc4c3)cc(NN3CCOCC3)n2)c1 [Example 199, N2-(4,6-dimethylpyridin-2-yl)-N4-(imidazo[1,2-a]pyridin-7-yl)-N6-morpholinopyrimidine-2,4,6-triamine]
24 | < 100 | < 100 | Cc1cc(C)nc(Nc2nc(NCc3ccccc3)cc(Nc3ccn4ccnc4c3)n2)c1 [Example 196, N4-benzyl-N2-(4,6-dimethylpyridin-2-yl)-N6-(imidazo[1,2-a]pyridin-7-yl)pyrimidine-2,4,6-triamine]
25 | < 100 | < 100 | CCc1ccnc(Nc2nc(Nc3ccn4ccnc4c3)cc(N3CC[C@@H](O)C3)n2)c1 [Example 116, (R)-1-(2-((4-ethylpyridin-2-yl)amino)-6-(imidazo[1,2-a]pyridin-7-ylamino)pyrimidin-4-yl)pyrrolidin-3-ol]
26 | < 100 | < 100 | Cc1ccc(Nc2nc(Nc3ccn4ccnc4c3)cc(N3CCOCC3)n2)nc1 [Example 18, N4-(Imidazo[1,2-a]pyridin-7-yl)-N2-(5-methylpyridin-2-yl)-6-morpholinopyrimidine-2,4-diamine]
27 | < 100 | < 100 | Cc1cc(C)nc(Nc2nc(Nc3ccn4ccnc4c3)cc(N3CCN(C)CC3)n2)c1 [Example 30, N2-(4,6-dimethylpyridin-2-yl)-N4-(imidazo[1,2-a]pyridin-7-yl)-6-(4-methylpiperazin-1-yl) pyrimidine-2,4-diamine]
28 | < 100 | < 100 | CC(C)c1ccnc(Nc2nc(Nc3ccn4ccnc4c3)cc(N3CCOCC3)n2)c1 [Example 70, N4-(imidazo[1,2-a]pyridin-7-yl)-N2-(4-isopropylpyridin-2-yl)-6-morpholinopyrimidine-2,4-diamine]
29 | < 100 | < 100 | Cc1cc(C)nc(Nc2nc(Nc3ccn4ccnc4c3)cc(N3CC[C@H](F)C3)n2)c1 [Example 185, (S)-N2-(4,6-dimethylpyridin-2-yl)-6-(3-fluoropyrrolidin-1-yl)-N4-(imidazo[1,2-a]pyridin-7-yl) pyrimidine-2,4-diamine]
30 | < 100 | < 100 | Cc1cc(C)nc(Nc2nc(Nc3ccn4ccnc4c3)cc(NN3CCCC3)n2)c1 [Example 206, N2-(4,6-dimethylpyridin-2-yl)-N4-(imidazo[1,2-a]pyridin-7-yl)-N6-(pyrrolidin-1-yl)pyrimidine-2,4,6-triamine]
31 | < 100 | < 100 | CCCCc1cccc(Nc2nc(Nc3ccn4ccnc4c3)cc(N3CC(C)(C)C3)n2)n1 [Example 180, N2-(6-butylpyridin-2-yl)-6-(3,3-dimethylazetidin-1-yl)-N4-(imidazo[1,2-a]pyridin-7-yl) pyrimidine-2,4-diamine]
